Our source for the latency time and escape latency time values is US20220160798A1 (priority 2019, published 2022).

Structures are written as SMILES.

Experiment [1] relates to ICR mice. As to the kind of experiment: Passive avoidance test, scopolamine-induced dementia. In kind it is in vivo. On the procedure:
(§1) The deterioration of cognitive ability of Aβ1-42 (Amyloid Beta 1-42) was evaluated in 4-week-old male mice. ICR mice (Bio Link, Eumseong-gun, Chungbuk, Korea) were purchased, adapted to an experimental animal room for one week, and randomly consisted of 6 mice in each group. As experimental groups, a group administered with the Spirulina extract (hereinafter, SM70EE) produced by Example 1 by concentration and a group administered with chlorophyll a were used. As a control group, a group without treating a Spirulina extract, and as a comparative group, a group administered with scopolamine causing dementia and a group administered with donepezil as a dementia therapeutic agent were used. During the adaptation period, the feed and water were freely supplied without limitation, and the temperature of 22±2° C. and the humidity of 50±10% were maintained, and the contrast was adjusted to a period of 12 hours (09:00 to 21:00).
An avoidance box (40×20×20 cm) of a passive avoidance measuring device was divided into a light box and a dark box, and a door was installed between the rooms so that the experimental mice moved. […]
After 24 hours, the same test was conducted, and the escape latency time while the experimental mice moved was measured. […]

Experiment [2] concerns ICR mice. The experiment can be described thus: Morris water maze test, scopolamine-induced dementia. The class given is in vivo. The protocol: as §1, with “During the adaptation period, the feed and water were freely supplied without limitation, and the temperature of 22±2° C. and the humidity of 50±10% were maintained, and the contrast was adjusted to a period of 12 hours (09:00 to 21:00).” left out
In Experimental Example above, a passive avoidance analysis evaluation test was conducted by applying a Morris's method. […] For adaptation, only the swimming practice was performed for 60 seconds without a platform on the first day of the experiment, a test trial was performed for 4 days in the pool disposed with the platform from the second day, and then escape latency time which was time taken for experimental mice administered with a drug to escape on the platform was measured. […]

In the case of `C=Cc1c(C)c2cc3nc(c4c5[n-]c(cc6nc(cc1[n-]2)C(C)=C6CC)c(C)c5C(=O)[C@@H]4C(=O)OC)[C@@H](CCC(=O)OC/C=C(\C)CCC[C@H](C)CCC[C@H](C)CCCC(C)C)[C@@H]3C.[Mg+2]` [chlorophyll a], the latency time result in the experiment on ICR mice [1] (10 mg/kg oral, scopolamine 1 mg/kg s.c., vs scopolamine group) is “increased”. Also, the escape latency time result in the experiment with ICR mice [2] (10 mg/kg oral, scopolamine 1 mg/kg s.c.) is “decreased”.

In the case of `CN1[C@@H]2C[C@@H](OC(=O)[C@H](CO)c3ccccc3)C[C@H]1[C@@H]1O[C@@H]12` [scopolamine], the latency time entry in the experiment with ICR mice [1] (scopolamine only, 1 mg/kg s.c., vs control group) is recorded as “significantly reduced”. Further, in the experiment on ICR mice [2] (scopolamine only, 1 mg/kg s.c.), the escape latency time result is reported as “increased”.
